{
  "source": "patent US20250152610A1",
  "about": "“IMIDAZOLATE GOLD COMPOUNDS FOR THE TREATMENT OF LUNG CANCER” (University of Cincinnati, priority 2022, published 2025)",
  "key": {"GPX4": {"test_system": "GPX4", "conditions": "H522 KRAS-WT and A546 KM cells, 10 μM, 48 hours; FIG. 5A", "protocol": "H522 KRAS-WT lung cancer cells and A546 KM lung cancer cells were treated with vehicle (negative control), DM20 (10 μM), CS47 (10 μM), and auranofin (1 μM, positive control) for 48 hours. Protein lysates were extracted from the cells and Western blot analysis was carried out to detect expression of TXNRD1 and GPX4 in the cell lines after treatment, with GAPDH expression detected as a control."}, "[1]": {"test_system": "H193 and H1395 KRAS-WT lung cancer cells", "conditions": "for lipid peroxidation (oxidized C11-BODIPY) in KRAS-WT cells: 10 μM, 48 hours, FIG. 5B; for ferroptosis induction in KRAS-WT lung cancer cells (overall conclusion): taken together from Examples 1-4", "protocol": "H157 and A549 KM lung cancer cells and H193 and H1395 KRAS-WT lung cancer cells were treated with vehicle (negative control), DM20 (10 μM), CS47 (10 μM), or auranofin (1 μM positive control) for 48 hours. Cells were then stained with DAP, oxidized C11-BODIPY, and reduced C11-BODIPY. C11-BODIPY is a ferroptosis lipid sensor that switches from red to green fluorescence upon oxidation."}, "[2]": {"test_system": "H522 KRAS-WT lung cancer cells", "test": "MTT cell viability rescue with ferrostatin-1, L-cysteine or NAC", "format": "cell-based, human", "conditions": "48 hours, DM20 10 μM, CS47 10 uM, auranofin 1 μM; for rescue of cell viability by ferrostatin-1 (Fer-1): FIG. 4A; for rescue of cell viability by cysteine: FIG. 4B; for rescue of cell viability by n-acetyl-cysteine (NAC): FIG. 4C", "protocol": "H522 KRAS-WT lung cancer cells were treated with DM20 (10 μM), CS47 (10 uM), or auranofin (1 μM) in combination with ferrostatin-1, L-cysteine, or n-acetyl-cysteine (all mM, 48 hours of treatment, in quadruplicate). Statistics indicate one-way ANOVA followed by Sidak's multiple comparisons analysis with ns, p>0.05; *, p<0.05: **, p<0.01; ***, p<0.001 and ****, p<0.0001."}, "[3]": {"test_system": "KRAS-WT lung cancer cells (H1395, H522, H661, H1993, H332, H820) versus KM lung cancer cells (H157, H1264, H2122, H460, A549)", "test": "MTT cell viability assay on panel of KRAS-WT and KM lung cancer cell lines", "format": "cell-based, human", "conditions": "1 nM to 100 μM; FIGS. 3A-3F; unpaired t test", "protocol": "Experiments were carried out to determine whether DM20 and CS47 are reversible TrxR inhibitors capable of triggering ferroptosis in KRAS-WT lung cancer cells. DM20 and CS47 in concentrations ranging from 1 nM to 100 μM were tested on a panel of KM and KRAS-WT cell lines in MTT cell viability assays. The tested KM cell lines included H157, H1264, H2122, H460, and A549 cells. The tested KRAS-WT cell lines included H1395, H522, H661, H1993, H332, and H820. Auranofin was included as a positive drug control and the human lung […] fibroblast cell line IMR90 was included as a normal, non-transformed cell counterpart. MTT viability and IC50 values were determined, results for which are shown in FIGS. 3A-3F, wherein each line or symbol corresponds to a human […] cell line. Statistics indicate unpaired t test with *, p<0.05, and **, p<0.01."}},
  "data": [
    {"smiles": "N#Cc1nc[n]([Au][PH](c2ccccc2)(c2ccccc2)c2ccccc2)c1C#N", "note": "[DM20, 4,5-dicyano-imidazolate-1yl-gold(I)-triphenylphosphane]", "values": [
      {"measurement": "GPX4 expression after treatment (Western blot)", "setting": "GPX4", "result": "depletes GPX4 expression"},
      {"measurement": "lipid peroxidation (oxidized C11-BODIPY) in KRAS-WT cells", "setting": "[1]", "result": "induces lipid peroxidation"},
      {"measurement": "ferroptosis induction in KRAS-WT lung cancer cells (overall conclusion)", "setting": "[1]", "result": "induce ferroptosis"},
      {"measurement": "rescue of cell viability by ferrostatin-1 (Fer-1)", "setting": "[2]", "result": "can rescue the cell viability"},
      {"measurement": "rescue of cell viability by cysteine", "setting": "[2]", "result": "can rescue the cell viability"},
      {"measurement": "rescue of cell viability by n-acetyl-cysteine (NAC)", "setting": "[2]", "result": "can rescue the cell viability"},
      {"measurement": "sensitivity of KRAS-WT lung cancer cells compared with KM lung cancer cells (MTT viability, IC50)", "setting": "[3]", "result": "significantly and selectively more sensitive"}
    ]},
    {"smiles": "Clc1nc[n]([Au][PH](c2ccccc2)(c2ccccc2)c2ccccc2)c1Cl", "note": "[CS47, 4,5-dichloro-imidazolate-1yl-gold(I)-triphenylphosphane]", "values": [
      {"measurement": "GPX4 expression after treatment (Western blot)", "setting": "GPX4", "result": "depletes GPX4 expression"},
      {"measurement": "lipid peroxidation (oxidized C11-BODIPY) in KRAS-WT cells", "setting": "[1]", "result": "induces lipid peroxidation"},
      {"measurement": "ferroptosis induction in KRAS-WT lung cancer cells (overall conclusion)", "setting": "[1]", "result": "induce ferroptosis"},
      {"measurement": "rescue of cell viability by ferrostatin-1 (Fer-1)", "setting": "[2]", "result": "can rescue the cell viability"},
      {"measurement": "rescue of cell viability by cysteine", "setting": "[2]", "result": "can rescue the cell viability"},
      {"measurement": "rescue of cell viability by n-acetyl-cysteine (NAC)", "setting": "[2]", "result": "can rescue the cell viability"},
      {"measurement": "sensitivity of KRAS-WT lung cancer cells compared with KM lung cancer cells (MTT viability, IC50)", "setting": "[3]", "result": "significantly and selectively more sensitive"}
    ]},
    {"smiles": "CC(=O)OC[C@H]1O[C@@H]([S-])[C@H](OC(C)=O)[C@@H](OC(C)=O)[C@@H]1OC(C)=O.CCP(CC)CC.[Au+]", "note": "[auranofin, reference compound]", "values": [
      {"measurement": "rescue of cell viability by ferrostatin-1 (Fer-1)", "setting": "[2]", "result": "can rescue the cell viability"},
      {"measurement": "rescue of cell viability by cysteine", "setting": "[2]", "result": "can rescue the cell viability"},
      {"measurement": "rescue of cell viability by n-acetyl-cysteine (NAC)", "setting": "[2]", "result": "can rescue the cell viability"},
      {"measurement": "sensitivity of KRAS-WT lung cancer cells compared with KM lung cancer cells (MTT viability, IC50)", "setting": "[3]", "result": "significantly and selectively more sensitive"}
    ]}
  ]
}
